Reference: patent US7250425B2, “8-aza-bicyclo[3.2.1]octane derivatives and their use as monoamine neurotransmitter re-uptake inhibitors” (priority 2003, dated 2007)
Counter-ions that a name gives are not always drawn.

Tests used:
[1] = biological target: T1, reuptake of dopamine (DA) in synaptosomes (Rattus norvegicus, UniProt P23977); experiment: In vitro inhibition of dopamine reuptake in synaptosomes; assay type: biochemical
T1 construct: in synaptosomes as described in WO 97/16451; from tissue
T1 sequence (P23977 whole entry): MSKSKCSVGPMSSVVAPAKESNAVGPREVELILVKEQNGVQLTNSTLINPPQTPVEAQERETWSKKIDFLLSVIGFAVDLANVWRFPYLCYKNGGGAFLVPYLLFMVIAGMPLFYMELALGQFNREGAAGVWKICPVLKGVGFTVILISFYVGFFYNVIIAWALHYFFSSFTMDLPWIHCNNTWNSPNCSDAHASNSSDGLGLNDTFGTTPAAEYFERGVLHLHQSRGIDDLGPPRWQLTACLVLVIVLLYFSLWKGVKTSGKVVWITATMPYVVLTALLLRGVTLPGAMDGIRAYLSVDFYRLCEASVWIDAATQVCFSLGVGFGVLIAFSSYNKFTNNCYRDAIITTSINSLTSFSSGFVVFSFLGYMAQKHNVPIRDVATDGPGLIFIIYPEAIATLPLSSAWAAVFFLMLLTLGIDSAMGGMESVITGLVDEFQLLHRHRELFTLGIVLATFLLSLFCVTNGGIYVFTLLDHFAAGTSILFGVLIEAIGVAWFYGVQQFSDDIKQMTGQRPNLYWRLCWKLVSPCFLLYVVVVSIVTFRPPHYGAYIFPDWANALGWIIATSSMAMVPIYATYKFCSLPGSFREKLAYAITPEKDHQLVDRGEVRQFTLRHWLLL
Method: (§1) A number of compounds were tested for their ability to Inhibit the reuptake of the monoamine neurotransmitters dopamine (DA) noradrenaline(NA) and serotonin (5-HT) in synaptosomes as described in WO 97/16451.
(§2) The test values are given as IC50 (the concentration (μM) of the test substance which inhibits the specific binding of ^3H-DA, ^3H-NA, or 3H-5-HT by 50%).

[2] = biological target: T2, reuptake of serotonin (5-HT) in synaptosomes (Rattus norvegicus, UniProt P31652); experiment: In vitro inhibition of serotonin reuptake in synaptosomes; assay type: biochemical
T2 construct: in synaptosomes as described in WO 97/16451; from tissue
T2 sequence (P31652 whole entry): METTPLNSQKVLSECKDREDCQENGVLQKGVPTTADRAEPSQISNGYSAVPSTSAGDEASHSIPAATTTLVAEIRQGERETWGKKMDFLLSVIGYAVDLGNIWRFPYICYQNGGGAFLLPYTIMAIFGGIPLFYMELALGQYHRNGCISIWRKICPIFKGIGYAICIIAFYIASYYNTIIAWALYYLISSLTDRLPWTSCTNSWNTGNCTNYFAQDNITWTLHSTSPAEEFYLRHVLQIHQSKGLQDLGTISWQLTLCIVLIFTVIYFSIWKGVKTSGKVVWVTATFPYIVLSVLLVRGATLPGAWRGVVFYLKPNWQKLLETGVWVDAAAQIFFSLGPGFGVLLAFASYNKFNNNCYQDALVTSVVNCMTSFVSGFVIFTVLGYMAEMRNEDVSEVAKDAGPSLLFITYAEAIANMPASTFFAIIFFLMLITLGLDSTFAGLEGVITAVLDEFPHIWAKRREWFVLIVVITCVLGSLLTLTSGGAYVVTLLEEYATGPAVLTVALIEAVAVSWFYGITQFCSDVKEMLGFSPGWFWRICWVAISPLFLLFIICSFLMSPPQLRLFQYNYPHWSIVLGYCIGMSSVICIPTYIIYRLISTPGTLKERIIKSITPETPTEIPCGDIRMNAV
Method: as §1, §2

| Structure (SMILES) | IC50 [1] [nM] | IC50 [2] [nM] |
| --- | --- | --- |
| CN1C2CCC1[C@H](COc1cccc(Cl)c1Cl)[C@@H](c1cccc(Cl)c1)C2 (stereo partly drawn) [1st compound of method D, (2R,3S)-2-(2,3-Dichlorophenoxymethyl)-8-methyl-3-(3-chlorophenyl)-8-aza-bicyclo[3.2.1]octane fumaric acid salt] | 62 | 0.72 |
| Clc1cccc(C2CC3CCC(N3)C2COc2cccc3ccccc23)c1 [2nd compound of method E, (2R,3S)-2-(1-naphthyloxymethyl)-8-H-3-(3-chlorophenyl)-8-aza-bicyclo[3.2.1]octane fumaric acid salt] | 88 | 13 |
| Clc1cccc(C2CC3CCC(N3)C2COc2cccc(Cl)c2Cl)c1 [1st compound of method E, (2R,3S)-2-(2,3-Dichlorophenoxymethyl)-8-H-3-(3-chlorophenyl)-8-aza-bicyclo[3.2.1]octane fumaric acid salt] | 100 | 6.2 |
